# Patent US5703129A, “5-amino-6-cyclohexyl-4-hydroxy-hexanamide derivatives as inhibitors of β-amyloid protein production” (Bristol-Myers Squibb Company, priority 1996, dated 1997)
# Structures can show the parent of a compound that is named as a salt.
# Target: T1, γ-Secretase (Homo sapiens, UniProt P49768)
# T1 construct: transfected H4 (human neuroglioma) cells stably expressing constructs containing wild-type and mutant forms of β-APP; endogenous in cells; host or cells: H4 human neuroglioma cells, stably transfected with beta-APP (the substrate, not the enzyme)
# Experiment: Inhibition of γ-secretase: ELISA of β-AP made by transfected H4 cells in culture
# Type: cell-based
# Details: H4 (human neuroglioma) cells expressing β-APP (Swedish variant typically), approximately 16 hours incubation, β-AP in conditioned medium by ELISA
# From the text: Production and detection of β-AP made by cells in culture. The use of transfected H4 (human neuroglioma) cells stably expressing constructs containing wild-type and mutant forms of β-APP have been used to identify inhibitors of β-AP production. The Swedish variant of β-APP produces 5-7 fold more β-AP than the wild type and is typically used due to its enhanced signal. […] The capture antibody is typically a mouse monoclonal (IgG1/kβ-APPa). The antibody recognizes the carboxyl terminal epitope of β-AP. The specificity of the capture antibody ensures measurement of β-AP without interference by other secreted β-APP fragments that share amino acid sequence (β-AP1-16) with β-AP. The detecting antibody is typically an affinity purified rabbit polyclonal antibody, specific for the amino terminus of β-AP. In the cell-based assay conditioned medium from H4 cells is tested by ELISA for the quantity of β-AP present. The cell-based assay can be used to identify compounds that inhibit β-AP production. The assay should detect agents that inhibit cleavage at the β-secretase and/or the γ-secretase cleavage site as well as detecting any agent that interferes with the production and/or release of β-AP.
# A typical ELISA-based assay requires plating of the transfected cells at a density sufficient for the rapid detection of the secreted β-AP (experimentally predetermined for a particular stable cell population) in a 96-well format. Cells are plated for at least six hours prior to the introduction of the test compound at which time the growth medium is replaced by fresh medium containing the agent to be tested. Test agents may typically consist of synthetic compounds, secondary metabolites from bacterial or fungal fermentation extracts, or extracts from plant or marine samples. All synthetic agents are initially screened at doses ranging from 10-100 μM or in the case of extracts at sufficient dilution to minimize cytotoxicity. Incubation of the cells with the test agent will continue for approximately 16 hours at which time equal aliquots of media from each sample well is removed and placed into a previously prepared ELISA plate for β-AP quantitation. The ELISA is carried out in a manner described by others (Haass, et al., 1992; Hawlow and Lane, 1988) and the β-AP signal quantitated. Results are obtained by analysis of the ELISA plate following development and comparison to the mock treated cell populations and samples in which known amounts of β-AP were added to construct a standard concentration curve. […] If a compound is found to be active, then a dose response experiment is performed to determine the lowest dose of compound necessary to elicit the inhibition of the production of β-AP.
row,Compound,Activity Rating (Inhibition of γ-Secretase)
1,"CC(C)CNC(=O)[C@@H](C[C@H](O)[C@H](CC1CCCCC1)NC1CCC(C)CC1)C(C)C (relative stereo) [Example 40, [αS(αR*,γR*,δR*)]-γ-Hydroxy-δ-[(4-methylcyclohexyl)amino]-α-(1-methylethyl)-N-(2-methylpropyl)cyclohexanehexanamide]",+++ (+++ < = 10)
2,"CC(C)CNC(=O)[C@@H](C[C@H](O)[C@H](CC1CCCCC1)NC1CCC(C)C1)C(C)C (relative stereo) [Example 43, [αS(αR*,γR*,δR*)]-γ-Hydroxy-δ-[(3-methylcyclopentyl)amino]-α-(1-methylethyl)-N-(2-methylpropyl)cyclohexanehexanamide]",+++ (+++ < = 10)
3,"CCCCCN[C@@H](CC1CCCCC1)[C@@H](O)C[C@H](C(=O)NCCCC)C(C)C (relative stereo) [Example 45, [αS(αR*,γR*,δR*)]-N-Butyl-γ-hydroxy-α-(1-methylethyl)-δ-(pentylamino)cyclohexanehexanamide hydrochloride]",+++ (+++ < = 10)
4,"CCCCNC(=O)[C@@H](C[C@H](O)[C@H](CC1CCCCC1)NCCCC1CC1)C(C)C (relative stereo) [Example 46, [αS(αR*,γR*,δR*)]-N-Butyl-δ-[(3-cyclopropyl)propyl]amino-γ-hydroxy-α-(1-methylethyl)cyclohexanehexanamide hydrochloride]",+++ (+++ < = 10)
5,"CCCCNC(=O)[C@@H](C[C@H](O)[C@H](CC1CCCCC1)NCCC1CCCCC1)C(C)C (relative stereo) [Example 48, [αS(αR*,γR*,δR*)]-N-Butyl-δ-[(3-cyclohexyl)ethyl]amino-γ-hydroxy-α-(1-methylethyl)cyclohexanehexanamide hydrochloride]",+++ (+++ < = 10)

# Other lines, results leading:
row,Activity Rating (Inhibition of γ-Secretase),Compound
1,+++ (+++ < = 10),"CC(C)CCC(C)N[C@@H](CC1CCCCC1)[C@@H](O)C[C@H](C(=O)NCC(C)C)C(C)C (relative stereo) [Example 41, [αS(αR*,γR*,δR*)]-γ-Hydroxy-δ-[(1,4-dimethylpentyl)amino]-α-(1-methylethyl)-N-(2-methylpropyl)cyclohexanehexanamide hydrochloride]"
2,+++ (+++ < = 10),"CC(C)CNC(=O)[C@@H](C[C@H](O)[C@H](CC1CCCCC1)NC1CCCC(C)C1)C(C)C (relative stereo) [Example 42, [αS(αR*,γR*,δR*)]-γ-Hydroxy-δ-[(3-methylcyclohexyl)amino]-α-(1-methylethyl)-N-(2-methylpropyl)cyclohexanehexanamide]"
3,+++ (+++ < = 10),"CCCCNC(=O)[C@@H](C[C@H](O)[C@H](CC1CCCCC1)NC1CCC(C(C)C)CC1)C(C)C (relative stereo) [Example 44, [αS(αR*,γR*,δR*)]-N-butyl-γ-hydroxy-α-(1-methylethyl)-δ-[[4-(1-methylethyl)cyclohexyl]amino]cyclohexanehexanamide hydrochloride]"
4,+++ (+++ < = 10),"CCCCNC(=O)[C@@H](C[C@H](O)[C@H](CC1CCCCC1)NCCCC1CCCC1)C(C)C (relative stereo) [Example 47, [αS(αR*,γR*,δR*)]-N-Butyl-δ-[(3-cyclopentyl)propyl]amino-γ-hydroxy-α-(1-methylethyl)cyclohexanehexanamide hydrochloride]"
5,+++ (+++ < = 10),"CC(C)=CCCN[C@@H](CC1CCCCC1)[C@@H](O)C[C@H](C(=O)NCC(C)C)C(C)C (relative stereo) [Example 49, [αS(αR*,γR*,δR*)]-γ-hydroxy-α-(1-methylethyl)-δ-[(4-methyl-3-pentenyl)amino]-N -(2-methylpropyl)cyclohexanehexanamide]"
